Each structure is given as a SMILES string.

This data set can be described thus: gradient 5% acetonitrile 3 min, to 50% in 2 min, to 85% in 15 min, held 3 min, 100 µL/min. To be noted: column: Zorbax Extend-C18 2.1 x 50 mm; eluents: water / acetonitrile, 0.1% formic acid. A digest of the protocol: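 Each retention time is based on an adduct peak selected computationally and verified by manual inspection. Measurements used HPLC–quadrupole time-of-flight mass spectrometry in positive and negative ionization mode on mixtures of ~100 pure standards. Chromatography ran on a Zorbax Extend-C18 column (2.1 × 50 mm, 1.8 μm) at 100 μL/min with water and acetonitrile, each containing 0.1% formic acid, and dead and dwell volumes of 40 μL and 900 μL.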
Molecule `Cn1c(N2CCN(C(=O)Cc3ccc(F)cc3)CC2)cc(=O)n(C)c1=O` had an RP-LC retention time of 680 s.
Take `O=C(CN1C(=O)CCSc2ccccc21)NCCCN1CCN(Cc2ccccc2)CC1`: the RP-LC retention time came out at 614 s.
As for `Cc1ccc(-c2ccc(N3CCN(c4ccccn4)CC3)nn2)cc1S(=O)(=O)N1CCC(C)CC1`, the figure is 743 s; as for `O=C(Cc1cccs1)N1CC(c2noc(C3CCCN3CC3CC3)n2)C1` (stereo unspecified), 599 s.
The molecule `COCCC(=O)NCCC1CCN(C(=O)Nc2cc(F)ccc2F)CC1` gave an RP-LC retention time of 675 s.
As for `CCCNC(=O)c1cc(C)nc2ccc(F)cc12`, the figure is 646 s; as for `C=Cc1ccc(Cn2nc3c(S(=O)(=O)N4CCc5ccccc5C4)cccn3c2=O)cc1`, 1050 s; as for `O=C(NCc1ccccc1)N1CCN(Cc2nc3cc(-c4ccccc4)ccc3o2)CC1`, 825 s.
The figure for `CN(C)c1cc(N2CCCC(NC(=O)Cc3ccccc3)C2)ncn1` (stereo unspecified) is 795 s; for `CCn1cc(CN2CC(Oc3ccc(-c4noc(-c5ccncc5)n4)cc3)C2)cn1` it is 633 s; for `O=C(Nc1cc(-c2ccccn2)no1)c1cccc(F)c1` it is 791 s.
On to `CC(C)Cc1nc(C2CN(C(=O)c3cnccn3)CC23CCCC3)no1` (stereo unspecified), for which the RP-LC retention time stood at 618 s.
`CC(C)N1C(=O)c2cccnc2Sc2cc(NC(=O)C3CC3)ccc21` yielded an RP-LC retention time of 733 s.
`O=S(=O)(c1cc(-c2nnc(C3CC3)o2)co1)N1CCN(c2cccc(Cl)c2)CC1` showed an RP-LC retention time of 1060 s.
The figure for `COc1ccc(-c2noc(NC3CCCC3)n2)cc1` is 951 s.
`CSc1nnc(Cn2c(=O)sc3ccccc32)n1-c1cccc(C(F)(F)F)c1` returned an RP-LC retention time of 824 s.
`COc1ccc(CC(=O)Nc2nc3ccc(S(=O)(=O)NC(C)C)cc3s2)cc1OC` showed an RP-LC retention time of 730 s.
The figure for `COc1ccc(-c2noc(-c3ncn4c3COC(c3ccc(F)cc3)C4)n2)cc1OC` (stereo unspecified) is 958 s; for `COc1ccc(N2CCN(c3nccc4ccc(C(=O)NC5CCCC5)cc34)CC2)cc1` it is 734 s.
As for `CC(=O)Nc1ccc2nc(NC(=O)CCOc3ccccc3)sc2c1`, the figure is 708 s; as for `CCN(CC)c1ncc2c(n1)CCC(C(=O)Nc1ccc(OC)c(OC)c1)C2` (stereo unspecified), 660 s; as for `CCn1ccc(NC(=O)c2ccc(C)cc2C)n1`, 765 s.
As for `COc1ccccc1-c1nc(Cn2nnc(-c3nc(-c4ccc(OC(C)C)cc4)no3)c2C)c(C)o1`, the figure is 1230 s.
Consider `O=C(C1CC(=O)N(c2n[nH]c3cccc(F)c23)C1)N1CCN(Cc2ccccc2)CC1` (stereo unspecified), for which the RP-LC retention time is 598 s.
As for `CCC1CCCCN1C(=O)Cc1c(C)nc2nc(-c3ccc(C(C)(C)C)cc3)nn2c1C` (stereo unspecified), the figure is 1160 s; as for `Cn1c(=O)c(N2CCC(C(=O)NCCc3ccco3)CC2)nc2ccccc21`, 794 s; as for `COc1ccc(Cl)cc1NC(=O)C1CCN(S(=O)(=O)c2ccc3c(c2)NC(=O)C(C)O3)CC1` (stereo unspecified), 946 s.
The figure for `CC(C)(C)NS(=O)(=O)c1cncc(-c2cc(F)c3nc(N)nn3c2)c1` is 750 s; for `COc1ccc(CSc2nccc3c2ccn3CC(=O)NCc2ccco2)cc1` it is 686 s.
The figure for `CC(=O)Nc1ccc(OC(=O)Oc2ccc(NC(C)=O)cc2)cc1` is 724 s; for `CN(C)C1(CC2CC2)CCN(C(=O)c2ccco2)CC1` it is 556 s.
As to `O=C1COc2ccc(S(=O)(=O)N3CCC(C(=O)NCc4ccco4)CC3)cc2N1`, the RP-LC retention time stood at 697 s.
Take `CCS(=O)(=O)N1CCCc2cc(C(=O)NCC(C)C)ccc21`: the RP-LC retention time was 808 s.
As for `CC1CCN(CCCNc2nc3ccncc3n(Cc3ccccc3)c2=O)CC1`, the figure is 731 s.
As for `CCOC(=O)c1nc(Nc2ccc(C)c(C)c2)c2ccccc2n1`, the figure is 934 s; as for `COc1ccc2[nH]c(=O)c(CCC(=O)NCCN3CCc4ccccc4C3)cc2c1`, 623 s; as for `Cc1[nH]nc(-c2ccc(S(=O)(=O)NCCc3ccc(S(N)(=O)=O)cc3)o2)c1C`, 697 s.
`O=C(COc1ccc(F)cc1)Nc1ccc(-c2nc(-c3ccc(Cl)cc3)no2)cc1` showed an RP-LC retention time of 1340 s.
On to `CCn1nnc2ccc(-c3noc(-c4cccc(NC(C)=O)c4)n3)cc21`, for which the RP-LC retention time turned out to be 819 s.
Turning to `O=C(c1ccccn1)N1CCCC1c1nc(-c2ccc(F)cc2F)no1` (stereo unspecified), the RP-LC retention time worked out at 832 s.
The figure for `C=CCc1c(C)nn(-c2nc(CC(=O)Nc3nc4ccccc4[nH]3)cs2)c1C` is 764 s.
The figure for `COc1cc(NC(=O)NC2COc3ccccc3C2)cc(OC)c1OC` (stereo unspecified) is 773 s.
The molecule `CN(C)S(=O)(=O)c1ccc2c(c1)N(CC(=O)NCCCN1CCCC1)C(=O)C1CCCCN21` (stereo unspecified) displayed an RP-LC retention time of 614 s.
As for `CC(C)(C)c1ccc(C(=O)N2CCC3(CC2)N=C(c2ccccc2)NO3)cc1`, the RP-LC retention time was determined as 991 s.
`CC(C)Cc1nc2nccc(-c3ccccc3)n2n1` came in with an RP-LC retention time of 877 s.
As for `CC(C)c1ccc(Oc2nccn3c(=O)n(CC(=O)Nc4ccc(Br)cc4)nc23)cc1`, the figure is 1090 s.
`Cc1cc(C)cc(C(=O)NC(C)C(=O)Nc2nc3ccccc3[nH]2)c1` (stereo unspecified): the RP-LC retention time worked out at 688 s.
Regarding `CCCNC(=O)C1CCN(S(C)(=O)=O)c2cc(Cl)ccc2O1` (stereo unspecified), the RP-LC retention time is 747 s.
Regarding `O=S(=O)(NCC1(O)CCOCC1)c1ccc2c(c1)CCCC2`, the RP-LC retention time stood at 688 s.
The figure for `COCCNC(=O)N(C)CCc1noc(COc2ccc(Cl)cc2)n1` is 747 s; for `COc1ccc(N2CC(CNC(=O)C3CCCC3)OC2=O)cc1OC` (stereo unspecified) it is 649 s.
As for `Cc1cc(C)c2c(N3CCCC3)nc(C(=O)NCc3cccs3)nc2n1`, the figure is 643 s; as for `CC(C)c1nnc(C2CN(Cc3ccc(F)c(Cl)c3)CC23CCN(C)CC3)o1` (stereo unspecified), 591 s; as for `CCN(CC)S(=O)(=O)c1cc(-c2nnc(-c3ccccc3)o2)ccc1C`, 1080 s.
As for `CCc1nnc(-c2cc(C)n(CC(=O)Nc3cccc(SC)c3)c2C)o1`, the figure is 846 s; as for `Cc1ccc(S(=O)(=O)N2CCC3(CC2)NCCN=C3NCc2ccccc2)c(C)c1`, 739 s; as for `Cc1nn(-c2ccc(C(=O)N3CCCCC3)cc2)c2c1C(=O)CCC2`, 721 s.
Regarding `O=C(CCC1CCN(S(=O)(=O)c2ccccc2)CC1)N1CCOCC1`, the RP-LC retention time was determined as 741 s.
As for `CC(C(=O)NC1CCSC1=O)n1nc(-n2cccn2)ccc1=O` (stereo unspecified), the figure is 616 s.
As for `CCC1CN(C(=O)N2CCC(C(=O)NCCN3CCOCC3)CC2)c2cc(C)ccc2O1` (stereo unspecified), the figure is 632 s; as for `O=C(CCN1C(=O)c2ccccc2S1(=O)=O)Nc1nc(-c2ccccc2)cs1`, 941 s.
As for `COc1nc2ccccc2nc1N1CCCC(C(=O)NC2CCCC2)C1` (stereo unspecified), the figure is 1000 s; as for `Cc1c(Cl)cccc1S(=O)(=O)N1CCCC1c1nc(-c2ccc(F)cc2)no1` (stereo unspecified), 1220 s; as for `COc1ccc(N2CCN(Cc3nc4nc(C)cc(N5CCCCC5)n4n3)CC2)cc1`, 660 s.
With `Cc1ccc(OCc2nc(Cc3nc(-c4ccccc4)oc3C)no2)cc1`, the RP-LC retention time is 1170 s.
As for `CC1=NS(=O)(=O)N(Cc2ccccc2)C=C1C(=O)OCc1noc(C2CCCCC2)n1`, the figure is 1110 s; as for `COc1ccc(C(=O)N2C[C@@H]3C[C@H]2C[C@@H]3NC(=O)c2cccs2)cn1`, 666 s.
In turn, `COc1ccc2[nH]cc(CCNC(=O)c3c(Cl)cccc3Cl)c2c1` displayed an RP-LC retention time of 774 s.
The figure for `Cc1ccc(Nc2c(-c3ccc(Cl)cc3)nc3ccccn23)cc1` is 787 s; for `CN(C)C(=O)COc1cc(O)c2c(=O)cc(-c3ccccc3)oc2c1` it is 832 s.
As for `CC(=O)n1nc(-c2ccc(C)c(C)c2)nc1N`, the figure is 813 s; as for `COc1cccc(NC(=O)C2CCN(C(=O)C3CC(=O)N(c4ccccc4)C3)CC2)c1` (stereo unspecified), 714 s.
Take `O=C(Nc1cccc(-c2ccn[nH]2)c1)c1ccco1`: the RP-LC retention time turned out to be 631 s.
The figure for `CCc1ccc(NC(=O)Cn2c(N)nc(C)cc2=O)cc1` is 639 s; for `CCOC(=O)c1cnc2nc(C)ccc2c1Nc1ccccc1` it is 673 s; for `COc1cc(CN(C(=O)c2ccc(OC(C)C)cc2)C2CCS(=O)(=O)C2)cc(OC)c1OC` (stereo unspecified) it is 868 s.
For `CCc1ccc(NC(=O)CSc2nnc3c4cc(-c5ccc(OC)cc5)nn4ccn23)cc1`, the RP-LC retention time came to 946 s.
The molecule `O=C(NCCn1nc(-c2ccc(F)cc2)ccc1=O)Nc1cccs1` gave an RP-LC retention time of 692 s.
The figure for `CCN1CCCn2cc(S(=O)(=O)Nc3ccc(C)cc3F)cc2C1=O` is 729 s.
As for `Cn1cc(-c2noc(-c3cc(F)ccc3Cl)n2)ccc1=O`, the RP-LC retention time was found to be 894 s.
In turn, `O=C(Cn1nc(N2CCOCC2)c2ccccc2c1=O)Nc1ccc2c(c1)OCCO2` yielded an RP-LC retention time of 737 s.

(Values after the METLIN SMRT retention time set (Domingo-Almenara et al. 2019).)
